Reference: the supplement of paper PMC4862054

Columns and labels:
Details in all cases: incubation time: 72 h
[1] = system: BT-474; experiment: drug sensitivity score (DSS), CellTiter-Glo (DSS (AUC-based score)); higher = stronger drug effect (viability inhibition or cytotoxicity); extreme values may be limits of the assay
Summary of the method: (§1)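 A drug sensitivity score was derived from the area under each fitted dose-response curve. Breast cancer cells (20 µl suspension) were seeded onto compound in 384-well plates, using 5 concentrations 10-fold apart over a compound-specific 10,000-fold range, and incubated 72 h. Readouts were CellTox Green fluorescence and then CellTiter-Glo luminescence, with every plate normalised to 0.1 % DMSO and a positive kill control.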

[2] = system: CAL-120; experiment: as above
Summary of the method: as §1

[3] = system: CAL-148; experiment: as above
Summary of the method: as §1

[4] = system: HCC1937; experiment: as above
Summary of the method: as §1

[5] = system: MCF-10A; experiment: as above
Summary of the method: as §1

[6] = system: MDA-MB-231; experiment: as above
Summary of the method: as §1

[7] = system: MDA-MB-453; experiment: as above
Summary of the method: as §1

[8] = system: MDA-MB-468; experiment: as above
Summary of the method: as §1

[9] = system: MFM-223; experiment: as above
Summary of the method: as §1

[10] = system: BT-474; experiment: drug sensitivity score (DSS), CellTox Green (DSS (AUC-based score)); higher = stronger drug effect (viability inhibition or cytotoxicity); extreme values may be limits of the assay
Summary of the method: as §1

[11] = system: BT-549; experiment: as above
Summary of the method: as §1

[12] = system: CAL-120; experiment: as above
Summary of the method: as §1

[13] = system: CAL-148; experiment: as above
Summary of the method: as §1

[14] = system: CAL-51; experiment: as above
Summary of the method: as §1

[15] = system: CAL-85-1; experiment: as above
Summary of the method: as §1

[16] = system: DU-4475; experiment: as above
Summary of the method: as §1

[17] = system: HCC1143; experiment: as above
Summary of the method: as §1

[18] = system: HCC1599; experiment: as above
Summary of the method: as §1

[19] = system: HDQ-P1; experiment: as above
Summary of the method: as §1

[20] = system: MCF-10A; experiment: as above
Summary of the method: as §1

[21] = system: MDA-MB-436; experiment: as above
Summary of the method: as §1

[22] = system: MDA-MB-453; experiment: as above
Summary of the method: as §1

[23] = system: MDA-MB-468; experiment: as above
Summary of the method: as §1

[24] = system: MFM-223; experiment: as above
Summary of the method: as §1

Row | Compound | drug sensitivity score [1] | drug sensitivity score [2] | drug sensitivity score [3] | drug sensitivity score [4] | drug sensitivity score [5] | drug sensitivity score [6] | drug sensitivity score [7] | drug sensitivity score [8] | drug sensitivity score [9] | drug sensitivity score [10] | drug sensitivity score [11] | drug sensitivity score [12] | drug sensitivity score [13] | drug sensitivity score [14] | drug sensitivity score [15] | drug sensitivity score [16] | drug sensitivity score [17] | drug sensitivity score [18] | drug sensitivity score [19] | drug sensitivity score [20] | drug sensitivity score [21] | drug sensitivity score [22] | drug sensitivity score [23] | drug sensitivity score [24]
1 | Cc1c2oc3c(C)ccc(C(=O)N[C@@H]4C(=O)N[C@H](C(C)C)C(=O)N5CCC[C@H]5C(=O)N(C)CC(=O)N(C)[C@@H](C(C)C)C(=O)O[C@@H]4C)c3nc-2c(C(=O)N[C@@H]2C(=O)N[C@H](C(C)C)C(=O)N3CCC[C@H]3C(=O)N(C)CC(=O)N(C)[C@@H](C(C)C)C(=O)O[C@@H]2C)c(N)c1=O [Dactinomycin] | 21 | 17.8 | 25.7 | 21.7 | 23.6 | 22.4 | 18.7 | 32.2 | 15 | 2.02 | 6.35 | 0 | 21.3 | 22.9 | 16.4 | 0 | 1.67 | 0 | 0 | 15.4 | 0 | 0 | 10.7 | 4.62
2 | COc1cccc2c1C(=O)c1c(O)c3c(c(O)c1C2=O)C[C@@](O)(C(=O)CO)C[C@@H]3O[C@H]1C[C@H](N)[C@H](O)[C@H](C)O1 [Doxorubicin] | 7.08 | 1.5 | 8.35 | 0 | 1.13 | 4.21 | 2.56 | 9.32 | 0 | 0 | 0 | 0 | 1.99 | 10.9 | 1.33 | 0 | 0 | 0 | 0 | 0 | 0 | 0 | 5.83 | 1.83
3 | Cc1ccc(F)c(NC(=O)Nc2ccc(-c3cccc4[nH]nc(N)c34)cc2)c1 [Linifanib] | 0 | 0 | 0 | 0 | 0 | 0 | 0 | 0 | 0 | 0 | 0 | 0 | 0 | 0 | 0 | 0 | 0 | 0 | 0 | 0 | 0 | 0 | 0 | 0
4 | CC(=O)O[C@]1(C(C)=O)CC[C@H]2[C@@H]3C=C(C)C4=CC(=O)CC[C@]4(C)[C@H]3CC[C@@]21C [Megestrol acetate] | 0 | 0 | 0 | 0 | 0 | 0 | 0 | 0 | 0 | 0 | 0 | 0 | 0 | 0 | 0 | 0 | 0 | 0 | 1.18 | 0 | 0 | 0 | 0 | 0
5 | S=c1[nH]cnc2nc[nH]c12 [Mercaptopurine] | 5.51 | 4.08 | 0 | 8.73 | 0 | 7.35 | 0 | 0 | 0 | 0 | 0 | 0 | 0 | 0 | 0 | 0 | 0 | 0 | 0 | 0 | 0 | 0 | 0 | 0
6 | Clc1ccc(C(c2ccccc2Cl)C(Cl)Cl)cc1 (configuration not stated) [Mitotane] | 0 | 0 | 0 | 0 | 0 | 0 | 0 | 0 | 0 | 0 | 0 | 0 | 0 | 0 | 0 | 0 | 2.11 | 0 | 0 | 0 | 0 | 0 | 0 | 0
7 | CCN1CCN(c2ccc(Nc3cc(N(C)C(=O)Nc4c(Cl)c(OC)cc(OC)c4Cl)ncn3)cc2)CC1 [NVP-BGJ398] | 0 | 2.55 | 0 | 0 | 0 | 0 | 0 | 0 | 7.35 | 0 | 0 | 0.0505 | 0 | 0 | 0 | 0 | 0 | 0 | 0 | 0 | 0 | 0 | 0 | 0
8 | COc1cccc2cc(-c3nc([C@H]4CC[C@H](C(=O)O)CC4)n4ncnc(N)c34)[nH]c12 [OSI-027] | 4.09 | 5.45 | 2.6 | 3.56 | 4.28 | 3.06 | 8 | 4.37 | 6.51 | 0 | 0 | 0 | 0 | 0 | 0.0118 | 0 | 0 | 0 | 0 | 0 | 0 | 0 | 0 | 0
9 | OC[C@H]1O[C@@H](n2cnc3c2N=CNC[C@H]3O)C[C@@H]1O [Pentostatin] | 0.0029 | 0 | 0 | 0 | 0 | 0 | 0 | 0 | 0 | 0 | 0 | 0 | 0 | 0 | 0 | 0 | 0 | 0 | 0 | 0 | 0 | 0 | 0 | 0
10 | N#CC[C@H](C1CCCC1)n1cc(-c2ncnc3[nH]ccc23)cn1 [Ruxolitinib] | 0.693 | 1.35 | 0 | 0 | 0 | 0 | 0 | 0.173 | 1.49 | 0 | 0 | 0 | 0 | 0 | 0 | 0 | 0 | 0 | 4.94 | 0 | 0 | 0 | 0 | 0
11 | C=CC[C@@H]1/C=C(\C)C[C@H](C)C[C@H](OC)[C@H]2O[C@@](O)(C(=O)C(=O)N3CCCC[C@H]3C(=O)O[C@H](/C(C)=C/[C@@H]3CC[C@@H](O)[C@H](OC)C3)[C@H](C)[C@@H](O)CC1=O)[C@H](C)C[C@@H]2OC [Tacrolimus] | 0.128 | 0 | 0 | 0 | 0 | 0 | 0 | 0 | 0 | 0 | 0 | 0 | 0 | 0 | 0 | 0 | 0 | 0 | 0 | 0.439 | 0 | 0 | 0 | 0
12 | C=CCNC1=C2C[C@@H](C)C[C@H](OC)[C@H](O)[C@@H](C)/C=C(\C)[C@H](OC(N)=O)[C@@H](OC)/C=C\C=C(/C)C(=O)NC(=CC1=O)C2=O [Tanespimycin] | 14.5 | 10.5 | 16.3 | 16.5 | 21.6 | 14.5 | 23.7 | 11.3 | 16.8 | 7.84 | 0 | 0.533 | 15.9 | 10.9 | 7.62 | 7.07 | 2.55 | 0 | 10.1 | 15.9 | 0 | 0 | 0 | 0
13 | CO[C@H]1C[C@@H]2CC[C@@H](C)[C@@](O)(O2)C(=O)C(=O)N2CCCC[C@H]2C(=O)O[C@H]([C@H](C)C[C@@H]2CC[C@@H](OC(=O)C(C)(CO)CO)[C@H](OC)C2)CC(=O)[C@H](C)/C=C(\C)[C@@H](O)[C@@H](OC)C(=O)[C@H](C)C[C@H](C)/C=C/C=C/C=C/1C [Temsirolimus] | 2.49 | 7.34 | 8.93 | 6.15 | 0 | 0 | 9.78 | 14.7 | 7.59 | 0 | 0 | 0 | 0 | 0 | 0 | 0 | 0 | 0 | 0 | 0 | 0 | 0 | 0 | 0
